From US20090298077A1, “ASSAY FOR MEASUREMENT OF APURINIC/APYRIMIDINIC (AP) SITES AND FOR SCREENING AP-SITE REACTIVE COMPOUNDS” (priority 2006, published 2009)
Values joined by “and” are separate entries in the source; they are usually repeats but may differ in a detail not shown here. Equal values may be shown once.

What was measured:
AP-DNA [1] = assay: Reversibility study of the condensation reaction between FARP / MX and AP-DNA; format: binding, calf; settings: result in words, under the assay conditions
Procedure: It was known that the aldehyde group of an AP site could easily condense with aminooxy or hydrazone nucleophiles. However, the reversibility of the reaction was not clear, especially in the presence of another competing nucleophile. To clarify the above, two experiments were designed and carried out as follows: (a) FARP (50 μM in 100 μL of 10 mM phosphate buffer at pH 7.0) reacted with AP-DNA (125 nM in 200 μL of 10 mM phosphate buffer at pH 7.0) for 1 hr, after washing the condensation product (FARP-AP-DNA) incubated with MX (50 μM in 100 μL of 10 mM phosphate buffer at pH 7.0) for various time periods; and (b) MX (50 μM in 100 μL of 10 mM phosphate buffer at pH 7.0) reacted with AP-DNA (125 nM, 200 μL) for 1 hr, after washing the condensation product (MX-AP-DNA) incubated with FARP (50 μM in 100 μL of 10 mM phosphate buffer at pH 7.0) for various time periods.

AP-DNA [2] = assay: FARP AP-site assay: screening of MX-like compounds in competition with FARP; format: binding, calf; settings: 100 nM AP-DNA
Procedure: (§1) 100 μL of 5 μM FARP in phosphate buffer (10 mM, pH 7.0) was added to 200 μL phosphate buffer (10 mM, pH 7.0) containing 10 μg of DNA extracted from cells, individual AP-DNA standard (10, 20, 40, 80, 160, 320, and 640 nM AP), and blank AP-DNA control, respectively. After vortexing, the reaction was allowed to proceed at room temperature for 15 min. At the end of the reaction 200 μL ammonium acetate (7.5M) and 1000 μL ice-cold ethanol (100%) were added. The solution was mixed gently by inverting the tube before keeping it at −20° C. for 30 min. Each tube was centrifuged at 4° C. and 12,000 g for 10 min. The supernatant was poured out carefully so that no loss of FARP-AP-DNA took place. 1200 μL of ice-cold ethanol (70%) was added to each tube to remove the free FARP by centrifugation at 4° C. and 12,000 g for 10 min. This washing step with 70% ice-cold ethanol was repeated two more times. After discarding the supernatant, the FARP-AP-DNA precipitate in the tube was dried at room temperature for 30 min. in a venting hood. The FARP-AP-DNA precipitate was hydrated and resuspended in 200 μL of phosphate buffer (10 mM, pH 9.0) at room temperature for 1 hr. The fluorescence intensity of the resultant FARP-AP-DNA solution was measured by the FluoroMax-2 spectrofluorometer. A calibration curve could be constructed by plotting the fluorescence intensity versus the concentration of AP sites.
One important application of the FARP AP-site assay developed is to screen MX-like compounds for their reactivity to AP site based on known chemical structures. In this work, four compounds with aminooxy or hydrazone group (i.e., MXL1O1, MXLIO2, MXLI 03, and MXL 104) together with MX were tested. The detail experiment included mixing equal concentration and volume of each individual test compound with FARP (50 μM in 100 μL of 10 mM phosphate buffer at pH 7.0) before reacting with 200 µL of 100 nM AP-DNA. The remaining experimental procedures were the same as described in the Experimental section. The data of fluorescence intensity reduced by MX and MX-like compounds were given in Table XI and the fluorescence intensity of the test compounds were compared in FIG. 19.

SW480 colon cancer cells [3] = assay: FARP assay of AP sites in DNA from drug-treated SW480 cells; format: cell-based; settings: 2 hrs at 37° C., MX 12.5 mM where combined
Procedure: as §1
(§2) Adherent SW480 colon cancer cells (from the American Type Culture Collection (Manassas, Va., USA), and human nonadherent mononuclear cells from heparinized peripheral blood of a normal donor, which were purified by the Ficoll-Hypaque density gradient centrifugation technique, were used in the in vitro experiments of TMZ and MX.
(§3) The cells (5×10^6 cells) were plated in 100-mm culture dishes and treated by TMZ alone at various concentrations (0, 187, 375, 750, and 1500 μM), and together with MX (12.5 mM) for 2 hrs at 37° C. At the end of treatment, the cells were washed by either rinsing the SW480 cells on dishes (SW480) or centrifugation of the human cells in tubes with the media. […]

[4] = tested on: human nonadherent mononuclear cells; assay: FARP assay of AP sites in DNA from drug-treated human nonadherent mononuclear cells; format: cell-based; settings: human nonadherent cell, 2 hrs at 37° C., MX 12.5 mM where combined
Procedure: as §1, §2
as §3, with “media. After plating the cells in dishes with fresh media, 3 mM MX was added to the dishes that were treated with TMZ and MX together. The cells were harvested by centrifugation at […] after the treatment of 3 mM MX.” for “media.”

SW480 colon cancer cells [5] = assay: ARP assay of AP sites in DNA from drug-treated SW480 cells; format: cell-based; settings: 2 hrs at 37° C., MX 12.5 mM where combined
Excerpt: (§4) An ARP method modified for the slot-blot vacuum filter device was used in this work. […]

[6] = tested on: human nonadherent mononuclear cells; assay: ARP assay of AP sites in DNA from drug-treated human nonadherent mononuclear cells; format: cell-based; settings: human nonadherent cell, 2 hrs at 37° C., MX 12.5 mM where combined
Excerpt: as §4

[7] = test compound mixed with FARP at equal concentration and volume (50 μM in 100 μL, pH 7.0)

Compound	reversibility of the condensation reaction with aldehyde group of AP-DNA (AP-DNA [1])	Normalized Fluorescence Intensity % (AP-DNA [2]; relative to FARP alone = 100, equal concentration of test compound and FARP)	Fluorescence Intensity Individual Measurement (AP-DNA [2]; [7])	Fluorescence Intensity Mean (AP-DNA [2]; [7])	FARP Assay Fluorescence Intensity/10^4 (SW480 colon cancer cells [3]; SW480, TMZ 187 μM)	FARP Assay Fluorescence Intensity/10^4 (SW480 colon cancer cells [3]; SW480, TMZ 375 μM)	FARP Assay Fluorescence Intensity/10^4 (SW480 colon cancer cells [3]; SW480, TMZ 750 μM)	FARP Assay Fluorescence Intensity/10^4 ([4]; TMZ 187 μM)	FARP Assay Fluorescence Intensity/10^4 ([4]; TMZ 375 μM)	FARP Assay Fluorescence Intensity/10^4 ([4]; TMZ 750 μM)	FARP Assay Fluorescence Intensity/10^4 ([4]; TMZ 1500 μM)	ARP Assay Band Intensity/10^3 (SW480 colon cancer cells [5]; SW480, TMZ 187 μM)	ARP Assay Band Intensity/10^3 (SW480 colon cancer cells [5]; SW480, TMZ 375 μM)	ARP Assay Band Intensity/10^3 (SW480 colon cancer cells [5]; SW480, TMZ 750 μM)	ARP Assay Band Intensity/10^3 ([6]; TMZ 187 μM)	ARP Assay Band Intensity/10^3 ([6]; TMZ 375 μM)	ARP Assay Band Intensity/10^3 ([6]; TMZ 750 μM)	ARP Assay Band Intensity/10^3 ([6]; TMZ 1500 μM)
NNC(=S)Nc1ccc(-c2c3ccc(=O)cc-3oc3cc(O)ccc23)c(C(=O)O)c1 [FARP, fluorescein-5-thiosemicarbazide]	irreversible	100.0%	17080.0 and 16892.0	16986.0	–	–	–	–	–	–	–	–	–	–	–	–	–	–
Cn1nnc2c(C(N)=O)ncn2c1=O [TMZ, 3,4-dihydro-3-methyl-4-oxoimidazo[5,1-d]-as-tetrazine-8-carboxamide]	–	–	–	–	2.428	3.691	5.310	1.622	3.138	4.201	15.77	1.420	2.723	5.233	2.201	3.524	4.352	5.844
